Laboratory results as given in patent publication US7608683B2, “Stress proteins and peptides and methods of use thereof” (The Regents of the University of California, priority 2000, dated 2009).
Where a SMILES comes first, the peptide text is derived from it. The star is where a group is joined. Biotin = O=C1N[C@H]2[C@H](CS[C@H]2CCCCC(=O)*)N1

Experiments:
[1] = system: PBMC from patients with RA; conditions: 31 RA patient samples
Procedure: In FIG. 13A, Stimulation Index (SI) (y-axis). […] The dots represent individual patients. Lines indicate median values.
In FIG. 13B samples of 20 patients with recent onset RA and samples of 12 patients with OA were tested for T cell proliferation to the proteins and to the individual peptides.

[2] = system: PBMCs from patients with RA; assay: T cell proliferation assay, PBMC of RA patients in the dnaJP1 trial; format: cell-based, human; conditions: negative control peptide
Text: FIG. 20A-L Treatment-induced modulation of T cell responses to dnaJP1. PBMC immune responses to dnaJP and controls from patients enrolled in the trial (n=15). T cell-proliferative response after in vitro culture with dnaJP1(a) or an irrelevant altered peptide ligand (b) in a standard proliferation assay. Phytohemagglutinin (a, ▴) was used as a positive control for T cell proliferation. […] Intracellular production of IL-2, IFN-γ, and TNF-α in response to dnaJP1 (c, e, and g) or PADRE peptide (d-f and h, respectively) at day 0 assessed at monthly intervals during treatment. Cytokine production is expressed as the percentage of CD3/cytokine double-positive cells measured by FACS in antigen-stimulated cultures, nonstimulated cultures (y axis). Error bars represent SD of the mean. Intracellular production of IL-4 (i) and IL-10 (k) after in vitro culture with dnaJP1 or with PADRE (j and l) at days 0, 56, and 168 of the treatment period.
T Cell Proliferation Assays. Peripheral blood mononuclear cells (PBMCs) were cultured in triplicate in […] u-shaped bottom wells (Costar, Cambridge, Mass.) at 5×10^5 cells per well for 120 h with or without antigen. […] Thymidine uptake was measured by using a liquid scintillation counter. Results are expressed as a mean cpm of triplicate cultures. The magnitude of the response is expressed as stimulation index: the mean cpm of stimulated/nonstimulated cultures. […]

patients with RA = conditions: 15 RA patients, 0.25, 2.5 or 25 mg daily orally for 6 months
Text: This study was a Phase I Immune Tolerization study conducted to determine whether in RA interplay between HLA and dnaJ-derived peptides there is maintained and/or stimulation of T cells which participate in autoimmune inflammation. The trial (number “n” of patients who completed=13) was designed in order to adhere to the American College of Rheumatology (ACR) 20 criteria for evaluation of efficacy.
Data from Phase I: The data shown in FIGS. 11A-E and 12A-E stem from a Phase I trial in which a total of 13 human RA patients were treated with three different doses of dnaJP1 qd po for 6 months. In vitro T cell responses to dnaJP1 were monitored at monthly intervals by measuring T cell proliferation and cytokine production in patients treated with dnaJP1 or control molecules.
We designed a pilot clinical trial to obtain information regarding both safety and immunological efficacy of the treatment. Enrollment criteria for this study included active RA as defined by the American College of Rheumatology, a disease duration <5 years and in vitro responsiveness to dnaJP1, defined as T cell proliferation and/or production of proinflammatory cytokines. DnaJP1 was given orally for 6 months. […]

[3] = system: PBMC from patients with JDM; assay: T cell proliferation (thymidine incorporation), PBMC of Juvenile Dermatomyositis patients; format: cell-based, human; conditions: 10 micrograms/ml, 96 hours; active disease vs remission
Text: FIG. 17 is a graph showing T cell proliferative responses of PBMC from patients with Juvenile Dermatomyositis (JDM) towards the hsp60 bacterial and human peptides of FIG. 5. Patients in remission (n=7); patients with active JDM (n=6).
This example identifies in another pediatric disease a peptide from the pool whose recognition triggers regulatory type T cells. Thirteen patients with a definite diagnosis of JDM according to standard disease criteria, were included in this study. […] All antigens were cultured at 10 micrograms/ml. After 96 hours thymidine incorporation was measured. The results are expressed in FIG. 17 as stimulation index (SI). SI is defined as counts per minute (cpm) thymidine incorporation in cells cultured with an antigen divided by cpm of cells cultured in culture medium without antigen. […] Bars represents the mean SI for PBMC from JDM patients with either active disease or incomplete clinical remission.

[4] = system: PBMC of subjects with JIA; format: cell-based, human; conditions: 72 hours culture, ELISA
[5] = system: PBMC of subjects with JIA; assay: immunological recognition (T cell proliferation and/or cytokine production) in subjects with JIA; format: cell-based, human
Text: The right Y-axis depicts the stimulation index SI, and the left Y-axis depicts the production of cytokines INF-γ and IL-10 in pg/ml.
Immunological recognition of an antigen can be defined as antigen-specific T cell proliferation and/or antigen-specific cytokine production after culture with the specific antigens. In addition, in a very high percentage of subjects (ranging from 60 to 100%), T cell recognition of these pan DR binding hsp60 peptides could be detected (FIG. 9). This percentage can be considered extremely high if one considers both the failures of previous studies to determine T cell epitopes in JIA and the heterogenic HLA background in subjects with JIA.
If one compares the identified peptides with peptides that previously have been identified through the rat model of arthritis, the superiority of the method used here becomes evident. In previous studies in the model of adjuvant arthritis, it has been shown that mycobacterial hsp60 peptide containing amino acids 256-270 could induce protection in Adjuvant Arthritis. Following this finding a lot of effort has been put in attempting to identify the presence of 256-270 specific T cells in subjects with JIA. Based on the data provided by the computer algorithm, a new peptide was designed that was compared to the 256-270 aa peptide. […]

Compound | recognition (T cell proliferation) by RA patients [1] | other results
KCEFQDAYVLLSEKK [P6] | recognized | –
EAVLEDPYILLVSSK [P5] | recognized | –
DERAAYDQYGHAAFE (Biotin-DERAAYDQYGHAAFE-NH2; SMILES C[C@H](NC(=O)[C@H](C)NC(=O)[C@H](Cc1c[nH]cn1)NC(=O)CNC(=O)[C@H](Cc1ccc(O)cc1)NC(=O)[C@H](CCC(N)=O)NC(=O)[C@H](CC(=O)O)NC(=O)[C@H](Cc1ccc(O)cc1)NC(=O)[C@H](C)NC(=O)[C@H](C)NC(=O)[C@H](CCCNC(=N)N)NC(=O)[C@H](CCC(=O)O)NC(=O)[C@H](CC(=O)O)NC(=O)CCCC[C@@H]1SC[C@@H]2NC(=O)N[C@@H]21)C(=O)N[C@@H](Cc1ccccc1)C(=O)N[C@@H](CCC(=O)O)C(N)=O) [dnaJPv, altered peptide ligand, identical to dnaJP1 except for the two N-terminal amino acids; negative control] | – | proliferative T cell response in patients with RA [2]: does not induce a proliferative T cell response; proliferative T cell response in patients with RA ([2]; listed as dnaJpV): not stimulatory in patients
PYILLVSSKVSTVKD [P3] | recognized | –
C[C@H](NC(=O)[C@H](C)NC(=O)[C@H](Cc1c[nH]cn1)NC(=O)CNC(=O)[C@H](Cc1ccc(O)cc1)NC(=O)[C@H](CCC(N)=O)NC(=O)[C@H](CC(=O)O)NC(=O)[C@H](Cc1ccc(O)cc1)NC(=O)[C@H](C)NC(=O)[C@H](C)NC(=O)[C@H](CCCNC(=N)N)NC(=O)[C@H](CCCCN)NC(=O)[C@H](CCC(N)=O)NC(=O)CCCC[C@@H]1SC[C@@H]2NC(=O)N[C@@H]21)C(=O)N[C@@H](Cc1ccccc1)C(=O)N[C@@H](CCC(=O)O)C(N)=O [dnaJP1] (Biotin-QKRAAYDQYGHAAFE-NH2) | – | tolerability / side effects (patients with RA): well tolerated because no significant side effects were reported
VASLLTTAEVVVTEI (listed as Homo sapiens) [P8] | recognized | recognition (T cell proliferation, SI) in JDM patients [3]: recognized by the patients during disease remission
GEALSTLVLNRLKVG [P2] | recognized | –
IAGLFLTTEAVVADK [P7] | recognized | –
mycobacterial hsp60 256-270: negative control peptide, mycobacterial hsp60 amino acids 256-270, protective in rat adjuvant arthritis | – | antigen-specific cytokine production (IL-10, IFN-γ, TNF-α) [4]: did not induce any cytokine production
AYVLLSEKKISSIQS [P4] | recognized | –
GEALSTLVVNKIRGT [P1] | recognized | T cell responses as defined by T cell proliferation and cytokine production [5]: did induce T cell responses
